Measured values reported in ChEMBL document CHEMBL2203177, “Tuning the activity of a short arg-trp antimicrobial Peptide by lipidation of a C- or N-terminal lysine side-chain” (ACS Med Chem Lett, 2012).
Values after ≈ are worked out from the molar mass of the structure shown. Peptide text beside a SMILES is read from it. * marks the point of attachment. Myristoyl = CCCCCCCCCCCCCC(=O)*; Lauroyl = CCCCCCCCCCCC(=O)*; Decanoyl = CCCCCCCCCC(=O)*; Hexanoyl = CCCCCC(=O)*; Butyryl = CCCC(=O)*

Tests used:
Acinetobacter baumannii = experiment: Antibacterial activity against Acinetobacter baumannii DSM 30007 assessed as growth inhibition after 18 hrs; assay type: functional; conditions: DSM 30007, 18 h
Staphylococcus aureus [1] = experiment: Antibacterial activity against Staphylococcus aureus ATCC 43300 assessed as growth inhibition after 18 hrs; assay type: functional; conditions: ATCC 43300, 18 h
Escherichia coli = experiment: Antibacterial activity against Escherichia coli DSM 30083 assessed as growth inhibition after 18 hrs; assay type: functional; conditions: DSM 30083, 18 h
[2] = Hemolytic activity against human RBC assessed as hemoglobin leakage at 250 ug/ml; assay type: ADME, cell-based, Erythrocyte; conditions: human red blood cells, read-out: Activity
Pseudomonas aeruginosa = experiment: Antibacterial activity against Pseudomonas aeruginosa DSM 50071 assessed as growth inhibition after 18 hrs; assay type: functional; conditions: DSM 50071, 18 h
Staphylococcus aureus [3] = experiment: Antibacterial activity against Staphylococcus aureus DSM 20231 assessed as growth inhibition after 18 hrs; assay type: functional; conditions: DSM 20231, 18 h
Bacillus subtilis [4] = experiment: Antibacterial activity against Bacillus subtilis 168 DSM 402 assessed as growth inhibition after 18 hrs; assay type: functional; conditions: subsp. subtilis str. 168 DSM 402, 18 h
Bacillus subtilis [5] = experiment: Bactericidal activity against Bacillus subtilis 168 (trpC2)2 assessed as survival rate at twice MIC concentration incubated for 15 mins measured after 18 hrs; assay type: functional, subsp. subtilis str. 168 (trpC2)2

Structure (SMILES)	MIC (Acinetobacter baumannii) [µM]	MIC (Staphylococcus aureus [1]) [µM]	MIC (Escherichia coli) [µM]	hemolysis at 250 ug/ml [2] [%]	MIC (Pseudomonas aeruginosa) [µM]	MIC (Staphylococcus aureus [3]) [µM]	MIC (Bacillus subtilis [4]) [µM]	Survival (Bacillus subtilis [5]) [%]
CC(=O)NCCCC[C@H](N)C(=O)N[C@@H](CCCNC(=N)N)C(=O)N[C@@H](Cc1c[nH]c2ccccc12)C(=O)N[C@@H](CCCNC(=N)N)C(=O)N[C@@H](Cc1c[nH]c2ccccc12)C(=O)N[C@@H](CCCNC(=N)N)C(=O)N[C@@H](Cc1c[nH]c2ccccc12)C(N)=O (H-K(Ac)RWRWRW-NH2)	> 100	> 100	> 100	< 10	> 100	> 100	10 (≈ 12.1 µg/mL)	
CCCC(=O)NCCCC[C@H](N)C(=O)N[C@@H](CCCNC(=N)N)C(=O)N[C@@H](Cc1c[nH]c2ccccc12)C(=O)N[C@@H](CCCNC(=N)N)C(=O)N[C@@H](Cc1c[nH]c2ccccc12)C(=O)N[C@@H](CCCNC(=N)N)C(=O)N[C@@H](Cc1c[nH]c2ccccc12)C(N)=O (H-K(Butyryl)RWRWRW-NH2)	> 100	19 (≈ 23.6 µg/mL)	38 (≈ 47.2 µg/mL)	< 10	> 100	38 (≈ 47.2 µg/mL)	2 (≈ 2.49 µg/mL)	
CCCCCCCCCC(=O)NCCCC[C@H](N)C(=O)N[C@@H](CCCNC(=N)N)C(=O)N[C@@H](Cc1c[nH]c2ccccc12)C(=O)N[C@@H](CCCNC(=N)N)C(=O)N[C@@H](Cc1c[nH]c2ccccc12)C(=O)N[C@@H](CCCNC(=N)N)C(=O)N[C@@H](Cc1c[nH]c2ccccc12)C(N)=O (H-K(Decanoyl)RWRWRW-NH2)	9 (≈ 11.9 µg/mL)	1 (≈ 1.33 µg/mL)	5 (≈ 6.63 µg/mL)	> 50	9 (≈ 11.9 µg/mL)	2 (≈ 2.65 µg/mL)	2 (≈ 2.65 µg/mL)	0.016
CCCCCC(=O)NCCCC[C@H](N)C(=O)N[C@@H](CCCNC(=N)N)C(=O)N[C@@H](Cc1c[nH]c2ccccc12)C(=O)N[C@@H](CCCNC(=N)N)C(=O)N[C@@H](Cc1c[nH]c2ccccc12)C(=O)N[C@@H](CCCNC(=N)N)C(=O)N[C@@H](Cc1c[nH]c2ccccc12)C(N)=O (H-K(Hexanoyl)RWRWRW-NH2)	9 (≈ 11.4 µg/mL)	5 (≈ 6.35 µg/mL)	9 (≈ 11.4 µg/mL)	< 10	37 (≈ 47 µg/mL)	5 (≈ 6.35 µg/mL)	0.6 (≈ 0.762 µg/mL)	0.211
CCCCCCCCCCCC(=O)NCCCC[C@H](N)C(=O)N[C@@H](CCCNC(=N)N)C(=O)N[C@@H](Cc1c[nH]c2ccccc12)C(=O)N[C@@H](CCCNC(=N)N)C(=O)N[C@@H](Cc1c[nH]c2ccccc12)C(=O)N[C@@H](CCCNC(=N)N)C(=O)N[C@@H](Cc1c[nH]c2ccccc12)C(N)=O (H-K(Lauroyl)RWRWRW-NH2)	18 (≈ 24.4 µg/mL)	2 (≈ 2.71 µg/mL)	9 (≈ 12.2 µg/mL)	> 50	> 100	4 (≈ 5.42 µg/mL)	9 (≈ 12.2 µg/mL)	0.011
CCCCCCCCCCCCCC(=O)NCCCC[C@H](N)C(=O)N[C@@H](CCCNC(=N)N)C(=O)N[C@@H](Cc1c[nH]c2ccccc12)C(=O)N[C@@H](CCCNC(=N)N)C(=O)N[C@@H](Cc1c[nH]c2ccccc12)C(=O)N[C@@H](CCCNC(=N)N)C(=O)N[C@@H](Cc1c[nH]c2ccccc12)C(N)=O (H-K(Myristoyl)RWRWRW-NH2)	35 (≈ 48.4 µg/mL)	17 (≈ 23.5 µg/mL)	35 (≈ 48.4 µg/mL)	> 50	> 100	9 (≈ 12.4 µg/mL)	9 (≈ 12.4 µg/mL)	0.033
N=C(N)NCCC[C@H](NC(=O)[C@H](Cc1c[nH]c2ccccc12)NC(=O)[C@H](CCCNC(=N)N)NC(=O)[C@H](Cc1c[nH]c2ccccc12)NC(=O)[C@H](CCCNC(=N)N)NC(=O)[C@@H](N)CCCCN)C(=O)N[C@@H](Cc1c[nH]c2ccccc12)C(N)=O (H-KRWRWRW-NH2)	> 100	9 (≈ 10.6 µg/mL)	18 (≈ 21.1 µg/mL)	< 10	> 100	37 (≈ 43.4 µg/mL)	2 (≈ 2.34 µg/mL)	7
N=C(N)NCCC[C@H](NC(=O)[C@H](Cc1c[nH]c2ccccc12)NC(=O)[C@H](CCCNC(=N)N)NC(=O)[C@H](Cc1c[nH]c2ccccc12)NC(=O)[C@@H](N)CCCNC(=N)N)C(=O)N[C@@H](Cc1c[nH]c2ccccc12)C(N)=O (H-RWRWRW-NH2)	85 (≈ 88.8 µg/mL)	6 (≈ 6.27 µg/mL)	21 (≈ 21.9 µg/mL)	< 10	> 100	11 (≈ 11.5 µg/mL)	3 (≈ 3.13 µg/mL)	2.8
CC(=O)NCCCC[C@H](NC(=O)[C@H](Cc1c[nH]c2ccccc12)NC(=O)[C@H](CCCNC(=N)N)NC(=O)[C@H](Cc1c[nH]c2ccccc12)NC(=O)[C@H](CCCNC(=N)N)NC(=O)[C@H](Cc1c[nH]c2ccccc12)NC(=O)[C@@H](N)CCCNC(=N)N)C(N)=O (H-RWRWRWK(Ac)-NH2)	> 100	> 100	> 100	< 10	> 100	> 100	10 (≈ 12.1 µg/mL)	
CCCC(=O)NCCCC[C@H](NC(=O)[C@H](Cc1c[nH]c2ccccc12)NC(=O)[C@H](CCCNC(=N)N)NC(=O)[C@H](Cc1c[nH]c2ccccc12)NC(=O)[C@H](CCCNC(=N)N)NC(=O)[C@H](Cc1c[nH]c2ccccc12)NC(=O)[C@@H](N)CCCNC(=N)N)C(N)=O (H-RWRWRWK(Butyryl)-NH2)	> 100	38 (≈ 47.2 µg/mL)	38 (≈ 47.2 µg/mL)	< 10	> 100	> 100	5 (≈ 6.21 µg/mL)	
CCCCCCCCCC(=O)NCCCC[C@H](NC(=O)[C@H](Cc1c[nH]c2ccccc12)NC(=O)[C@H](CCCNC(=N)N)NC(=O)[C@H](Cc1c[nH]c2ccccc12)NC(=O)[C@H](CCCNC(=N)N)NC(=O)[C@H](Cc1c[nH]c2ccccc12)NC(=O)[C@@H](N)CCCNC(=N)N)C(N)=O (H-RWRWRWK(Decanoyl)-NH2)	5 (≈ 6.63 µg/mL)	1 (≈ 1.33 µg/mL)	2 (≈ 2.65 µg/mL)	50	9 (≈ 11.9 µg/mL)	1 (≈ 1.33 µg/mL)	0.6 (≈ 0.796 µg/mL)	0.053
CCCCCC(=O)NCCCC[C@H](NC(=O)[C@H](Cc1c[nH]c2ccccc12)NC(=O)[C@H](CCCNC(=N)N)NC(=O)[C@H](Cc1c[nH]c2ccccc12)NC(=O)[C@H](CCCNC(=N)N)NC(=O)[C@H](Cc1c[nH]c2ccccc12)NC(=O)[C@@H](N)CCCNC(=N)N)C(N)=O (H-RWRWRWK(Hexanoyl)-NH2)	19 (≈ 24.1 µg/mL)	9 (≈ 11.4 µg/mL)	19 (≈ 24.1 µg/mL)	< 10	74 (≈ 94 µg/mL)	18 (≈ 22.9 µg/mL)	2 (≈ 2.54 µg/mL)	0.687
CCCCCCCCCCCC(=O)NCCCC[C@H](NC(=O)[C@H](Cc1c[nH]c2ccccc12)NC(=O)[C@H](CCCNC(=N)N)NC(=O)[C@H](Cc1c[nH]c2ccccc12)NC(=O)[C@H](CCCNC(=N)N)NC(=O)[C@H](Cc1c[nH]c2ccccc12)NC(=O)[C@@H](N)CCCNC(=N)N)C(N)=O (H-RWRWRWK(Lauroyl)-NH2)	9 (≈ 12.2 µg/mL)	1 (≈ 1.35 µg/mL)	4 (≈ 5.42 µg/mL)	> 50	18 (≈ 24.4 µg/mL)	1 (≈ 1.35 µg/mL)	1 (≈ 1.35 µg/mL)	0.004
CCCCCCCCCCCCCC(=O)NCCCC[C@H](NC(=O)[C@H](Cc1c[nH]c2ccccc12)NC(=O)[C@H](CCCNC(=N)N)NC(=O)[C@H](Cc1c[nH]c2ccccc12)NC(=O)[C@H](CCCNC(=N)N)NC(=O)[C@H](Cc1c[nH]c2ccccc12)NC(=O)[C@@H](N)CCCNC(=N)N)C(N)=O (H-RWRWRWK(Myristoyl)-NH2)	9 (≈ 12.4 µg/mL)	2 (≈ 2.77 µg/mL)	17 (≈ 23.5 µg/mL)	> 50	70 (≈ 96.8 µg/mL)	2 (≈ 2.77 µg/mL)	4 (≈ 5.53 µg/mL)	0
N=C(N)NCCC[C@H](NC(=O)[C@H](Cc1c[nH]c2ccccc12)NC(=O)[C@H](CCCNC(=N)N)NC(=O)[C@H](Cc1c[nH]c2ccccc12)NC(=O)[C@@H](N)CCCNC(=N)N)C(=O)N[C@@H](Cc1c[nH]c2ccccc12)C(=O)N[C@@H](CCCCN)C(N)=O (H-RWRWRWK-NH2)	> 100	18 (≈ 21.1 µg/mL)	18 (≈ 21.1 µg/mL)	< 10	> 100	37 (≈ 43.4 µg/mL)	5 (≈ 5.86 µg/mL)	
